PubChem BioAssay (NCI)
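Five concentrations, 48 hours, 96-well plates. TGI: total growth inhibition.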

Columns and labels:
Assay in all cases: growth of human tumour cells (NCI), 48 h
K-562 leukemia = test system: K-562 leukemia
NCI-H460 lung = test system: NCI-H460 lung
OVCAR-4 ovarian = test system: OVCAR-4 ovarian
EKVX NSCLC = test system: EKVX NSCLC
HCT-116 colon = test system: HCT-116 colon
HCC-2998 colon = test system: HCC-2998 colon
786-0 renal = test system: 786-0 renal
SNB-19 CNS = test system: SNB-19 CNS
SF-539 CNS = test system: SF-539 CNS
TK-10 renal = test system: TK-10 renal
CCRF-CEM leukemia = test system: CCRF-CEM leukemia
ACHN renal = test system: ACHN renal
RXF 393 renal = test system: RXF 393 renal
NCI-H23 lung = test system: NCI-H23 lung
KM20L2 colon = test system: KM20L2 colon
HT29 colon = test system: HT29 colon
CAKI-1 renal = test system: CAKI-1 renal
SK-MEL-2 melanoma = test system: SK-MEL-2 melanoma
SF-295 CNS = test system: SF-295 CNS
MALME-3M melanoma = test system: MALME-3M melanoma
U251 CNS = test system: U251 CNS
OVCAR-3 ovarian = test system: OVCAR-3 ovarian
A549 NSCLC = test system: A549 NSCLC
DLD-1 colon = test system: DLD-1 colon
UACC-257 melanoma = test system: UACC-257 melanoma
SK-MEL-28 melanoma = test system: SK-MEL-28 melanoma
KM12 colon = test system: KM12 colon
HOP-92 NSCLC = test system: HOP-92 NSCLC
SNB-75 CNS = test system: SNB-75 CNS
M14 melanoma = test system: M14 melanoma
SF-268 CNS = test system: SF-268 CNS
A498 renal = test system: A498 renal
SK-OV-3 ovarian = test system: SK-OV-3 ovarian
LXFL 529 NSCLC = test system: LXFL 529 NSCLC
HOP-62 NSCLC = test system: HOP-62 NSCLC
UO-31 renal = test system: UO-31 renal
M19-MEL melanoma = test system: M19-MEL melanoma
NCI-H522 lung = test system: NCI-H522 lung
OVCAR-5 ovarian = test system: OVCAR-5 ovarian
LOX IMVI melanoma = test system: LOX IMVI melanoma
SNB-78 CNS = test system: SNB-78 CNS
SN12C renal = test system: SN12C renal
COLO 205 colon = test system: COLO 205 colon
SK-MEL-5 melanoma = test system: SK-MEL-5 melanoma
NCI-H226 lung = test system: NCI-H226 lung
DMS 273 small cell lung = test system: DMS 273 small cell lung
UACC-62 melanoma = test system: UACC-62 melanoma
MOLT-4 leukemia = test system: MOLT-4 leukemia
XF 498 CNS = test system: XF 498 CNS
HL-60(TB) leukemia = test system: HL-60(TB) leukemia
SW-620 colon = test system: SW-620 colon
DMS 114 small cell lung = test system: DMS 114 small cell lung
SR leukemia = test system: SR leukemia
IGROV1 ovarian = test system: IGROV1 ovarian

`CC1OC(OC2CCCc3c(O)c4c(c(O)c32)C(=O)c2ccccc2C4=O)CC(N)C1O` (configuration not stated) showed a TGI (K-562 leukemia) of 2.35 µM, a TGI (NCI-H460 lung) of 2.8 µM and a TGI (OVCAR-4 ovarian) of 3.2 µM. For the same compound, the TGI (EKVX NSCLC) was 3.27 µM, the TGI (HCT-116 colon) was 3.11 µM and the TGI (HCC-2998 colon) was 3.51 µM. It also gave a TGI (786-0 renal) of 2.55 µM, a TGI (SNB-19 CNS) of 3.04 µM and a TGI (SF-539 CNS) of 3.01 µM. It also gave a TGI (TK-10 renal) of 3.02 µM, a TGI (CCRF-CEM leukemia) of 2.64 µM and a TGI (ACHN renal) of 3.35 µM. The TGI (RXF 393 renal) was 2.23 µM, the TGI (NCI-H23 lung) was 3.22 µM and the TGI (KM20L2 colon) was 3.84 µM. The TGI (HT29 colon) was 2.87 µM, the TGI (CAKI-1 renal) was 2.91 µM and the TGI (SK-MEL-2 melanoma) was 3.21 µM. For the same compound, the TGI (SF-295 CNS) was 3.22 µM, the TGI (MALME-3M melanoma) was 3.27 µM and the TGI (U251 CNS) was 3.44 µM. For the same compound, the TGI (OVCAR-3 ovarian) was 2.62 µM, the TGI (A549 NSCLC) was 3.37 µM and the TGI (DLD-1 colon) was 2.69 µM. It also gave a TGI (UACC-257 melanoma) of 3 µM, a TGI (SK-MEL-28 melanoma) of 3.32 µM and a TGI (KM12 colon) of 2.98 µM. The TGI (HOP-92 NSCLC) was 2.86 µM, the TGI (SNB-75 CNS) was 2.66 µM and the TGI (M14 melanoma) was 3.21 µM. The TGI (SF-268 CNS) was 3.29 µM, the TGI (A498 renal) was 3.23 µM and the TGI (SK-OV-3 ovarian) was 2.42 µM. For the same compound, the TGI (LXFL 529 NSCLC) was 2.94 µM, the TGI (HOP-62 NSCLC) was 2.94 µM and the TGI (UO-31 renal) was 3.11 µM. It also gave a TGI (M19-MEL melanoma) of 3.24 µM, a TGI (NCI-H522 lung) of 3.06 µM and a TGI (OVCAR-5 ovarian) of 3.44 µM.

Work on `COc1cc2ccnc(-c3c4ccccc4c(N)c4c(OC)c(OC)ccc34)c2cc1OC` yielded a TGI (K-562 leukemia) of 7.98 µM, a TGI (NCI-H460 lung) of 6.53 µM and a TGI (LOX IMVI melanoma) of 3.08 µM. The TGI (OVCAR-4 ovarian) was 11.7 µM, the TGI (EKVX NSCLC) was 24.2 µM and the TGI (HCC-2998 colon) was 8.86 µM. The TGI (786-0 renal) was 11.5 µM, the TGI (SNB-19 CNS) was 15.4 µM and the TGI (SF-539 CNS) was 4.6 µM. The TGI (TK-10 renal) was 22.2 µM, the TGI (CCRF-CEM leukemia) was 14.2 µM and the TGI (ACHN renal) was 14 µM. The TGI (RXF 393 renal) was 6.87 µM, the TGI (SNB-78 CNS) was 18.3 µM and the TGI (NCI-H23 lung) was 17.7 µM. For the same compound, the TGI (HT29 colon) was 11.7 µM, the TGI (SN12C renal) was 14.1 µM and the TGI (CAKI-1 renal) was 8.72 µM. The TGI (SK-MEL-2 melanoma) was 16.6 µM, the TGI (COLO 205 colon) was 3.09 µM and the TGI (SF-295 CNS) was 13.9 µM. The TGI (SK-MEL-5 melanoma) was 12.3 µM, the TGI (NCI-H226 lung) was 5.66 µM and the TGI (MALME-3M melanoma) was 11.5 µM. For the same compound, the TGI (U251 CNS) was 14 µM, the TGI (DMS 273 small cell lung) was 3.47 µM and the TGI (UACC-62 melanoma) was 10.1 µM. The TGI (A549 NSCLC) was 17.3 µM, the TGI (DLD-1 colon) was 16.6 µM and the TGI (MOLT-4 leukemia) was 9.53 µM. The TGI (XF 498 CNS) was 6.75 µM, the TGI (HL-60(TB) leukemia) was 4.44 µM and the TGI (UACC-257 melanoma) was 4.37 µM. For the same compound, the TGI (SK-MEL-28 melanoma) was 6.92 µM, the TGI (KM12 colon) was 11.3 µM and the TGI (HOP-92 NSCLC) was 9.35 µM. For the same compound, the TGI (SW-620 colon) was 13.1 µM, the TGI (SF-268 CNS) was 18.6 µM and the TGI (A498 renal) was 8.89 µM. The TGI (DMS 114 small cell lung) was 4.71 µM, the TGI (SK-OV-3 ovarian) was 20.4 µM and the TGI (LXFL 529 NSCLC) was 15.7 µM. The TGI (SR leukemia) was 6.19 µM, the TGI (IGROV1 ovarian) was 14.5 µM and the TGI (HOP-62 NSCLC) was 14.9 µM. It also gave a TGI (UO-31 renal) of 13.5 µM, a TGI (M19-MEL melanoma) of 13.7 µM and a TGI (NCI-H522 lung) of 15.9 µM.
